Assay results from paper PMC10573254, “Development of Novel Class of Phenylpyrazolo[3,4-d]pyrimidine-Based Analogs with Potent Anticancer Activity and Multitarget Enzyme Inhibition Supported by Docking Studies” (International Journal of Molecular Sciences, 2023).
Like-named read-outs stand apart in the source and are kept apart here.

Tests used:
MCF-7 = assay: MTT cytotoxicity assay, MCF-7; format: cell-based; conditions: Homo sapiens, MCF7; MTT, breast cancer cells; read-out: IC50 MCF-7
Protocol: (§2) The cytotoxic activity was assessed using the 3-(4,5-dimethylthiazol-2-yl)-2,5-diphenyl tetrazolium bromide (MTT) colorimetric assay, as reported previously [62, 63]. […] Briefly, the designated cell lines were cultured at a concentration of 5 × 10^4 cell/well in 96-well plates. The cells were incubated for 24 h under optimum conditions. Following this, the designated molecules were introduced (in serial dilutions from 0 to 50 μg/mL), and the cells were incubated for an additional 24 h. Following this, the media were withdrawn, and 100 μL of fresh medium was added. Then, 10 µL of the 12 mM MTT stock solution was administered to each well. The plates were then incubated for 4 h. Then, the cells were exposed to different compounds at the desired concentrations (0.01, 0.1, 1, 10, and 100 µM) or to 1% dimethyl sulfoxide (DMSO) for 48 and 72 h. […] Then, the optical density was measured at 590 nm with the microplate reader (Sunrise, TECAN, Inc., Morrisville, NC, USA).

HCT-116 = assay: MTT cytotoxicity assay, HCT-116; format: cell-based; conditions: Homo sapiens, HCT-116, read-out: IC50 HCT-116; MTT, colon cancer cells
Protocol: as §2

HePG-2 = assay: MTT cytotoxicity assay, HePG-2; format: cell-based; conditions: Homo sapiens, HepG2
Protocol: (§1) The cytotoxic activity was assessed using the 3-(4,5-dimethylthiazol-2-yl)-2,5-diphenyl tetrazolium bromide (MTT) colorimetric assay, as reported previously. Doxorubicin was used as a reference standard, and DMSO was used as a negative control. Briefly, the designated cell lines were cultured at a concentration of 5 × 10^4 cell/well in 96-well plates. The cells were incubated for 24 h under optimum conditions. Following this, the designated molecules were introduced (in serial dilutions from 0 to 50 μg/mL), and the cells were incubated for an additional 24 h. Following this, the media were withdrawn, and 100 μL of fresh medium was added. Then, 10 µL of the 12 mM MTT stock solution was administered to each well. The plates were then incubated for 4 h. […] An 85-μL aliquot of the media was removed from the wells, and 50 µL of DMSO was added to each well and mixed thoroughly with the pipette and incubated at 37 °C for 10 min. Then, the optical density was measured at 590 nm with the microplate reader (Sunrise, TECAN, Inc., Morrisville, NC, USA).

WI-38 = assay: MTT assay on normal cell line WI-38; format: cell-based; conditions: Homo sapiens, WI-38, MTT, normal human diploid fibroblasts
Protocol: According to our design, the tested compounds are classified into four categories based on the length and the chemotype of the spacer (Figure 3). In the first category, we used monosubstituted hydrazone linker. […] The second category is represented by […] hydrazone linker.
as §1

Topo-II = molecular target: T1, Topo-II (Homo sapiens, UniProt Q02880); assay: In vitro Topo II inhibitory assay; format: biochemical
T1 construct: purchased
T1 sequence (Q02880 2-1626): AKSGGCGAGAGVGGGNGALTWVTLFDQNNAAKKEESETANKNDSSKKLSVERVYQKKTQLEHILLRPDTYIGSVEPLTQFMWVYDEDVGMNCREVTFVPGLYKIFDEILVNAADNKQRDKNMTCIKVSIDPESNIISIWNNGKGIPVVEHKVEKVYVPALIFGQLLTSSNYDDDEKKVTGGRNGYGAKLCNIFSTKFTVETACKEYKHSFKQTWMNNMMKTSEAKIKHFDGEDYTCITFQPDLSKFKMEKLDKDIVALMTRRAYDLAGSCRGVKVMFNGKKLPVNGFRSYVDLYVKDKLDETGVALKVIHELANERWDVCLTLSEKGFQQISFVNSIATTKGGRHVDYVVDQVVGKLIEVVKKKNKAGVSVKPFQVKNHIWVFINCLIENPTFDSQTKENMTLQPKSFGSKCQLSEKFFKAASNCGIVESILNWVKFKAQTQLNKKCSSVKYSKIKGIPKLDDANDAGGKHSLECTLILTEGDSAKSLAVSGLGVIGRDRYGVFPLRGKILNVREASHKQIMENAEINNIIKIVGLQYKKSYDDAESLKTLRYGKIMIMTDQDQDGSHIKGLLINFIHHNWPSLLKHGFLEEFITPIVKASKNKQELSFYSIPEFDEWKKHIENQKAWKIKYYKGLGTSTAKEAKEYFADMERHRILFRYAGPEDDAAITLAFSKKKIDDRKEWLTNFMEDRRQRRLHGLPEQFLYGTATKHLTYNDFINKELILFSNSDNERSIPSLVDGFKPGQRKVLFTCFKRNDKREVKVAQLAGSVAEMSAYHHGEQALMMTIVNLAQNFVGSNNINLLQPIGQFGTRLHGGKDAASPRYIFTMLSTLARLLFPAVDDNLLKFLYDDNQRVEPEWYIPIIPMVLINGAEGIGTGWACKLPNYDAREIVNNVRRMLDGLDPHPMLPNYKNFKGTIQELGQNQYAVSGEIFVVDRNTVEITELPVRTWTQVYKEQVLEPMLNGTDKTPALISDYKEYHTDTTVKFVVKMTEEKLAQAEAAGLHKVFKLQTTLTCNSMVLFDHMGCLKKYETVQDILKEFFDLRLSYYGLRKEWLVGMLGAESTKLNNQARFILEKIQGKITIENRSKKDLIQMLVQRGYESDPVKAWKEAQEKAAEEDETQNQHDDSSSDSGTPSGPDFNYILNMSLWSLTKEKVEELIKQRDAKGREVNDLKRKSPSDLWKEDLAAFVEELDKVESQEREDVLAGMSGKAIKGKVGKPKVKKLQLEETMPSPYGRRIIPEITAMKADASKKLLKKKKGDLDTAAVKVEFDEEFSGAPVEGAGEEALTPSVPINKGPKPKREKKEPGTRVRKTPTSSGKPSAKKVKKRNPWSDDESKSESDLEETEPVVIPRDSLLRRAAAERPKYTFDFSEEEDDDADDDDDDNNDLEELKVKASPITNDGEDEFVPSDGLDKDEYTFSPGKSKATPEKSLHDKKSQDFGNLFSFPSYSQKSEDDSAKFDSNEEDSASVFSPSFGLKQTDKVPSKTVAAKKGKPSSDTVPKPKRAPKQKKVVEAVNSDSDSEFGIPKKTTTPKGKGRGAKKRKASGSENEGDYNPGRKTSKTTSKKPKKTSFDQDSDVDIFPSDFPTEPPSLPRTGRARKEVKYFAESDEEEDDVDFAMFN
Protocol: Curve fitting was performed using GraphPad Prism.
(1 picture or pasted object on this page, not shown here)

[1] = MTT, liver cancer cells, read-out: IC50 HePG-2

| SMILES | melting point [°C] | IC50 (MCF-7) [µM] | IC50 (HCT-116) [µM] | IC50 (HePG-2; [1]) [µM] | also measured |
| --- | --- | --- | --- | --- | --- |
| Cc1nc(NN=Cc2ccccc2)c2cnn(-c3ccccc3)c2n1 [Compound 5a, 4-(2-Benzylidenehydrazinyl)-6-methyl-1-phenyl-1H-pyrazolo[3,4-d]pyrimidine] | 160 to 162 | 21.1 ± 1.5 | 11.7 ± 0.9 | 15.1 ± 1.2 | – |
| Cc1nc(NN=Cc2ccc(Cl)cc2)c2cnn(-c3ccccc3)c2n1 [Compound 5c, 4-(2-(4-Chlorobenzylidene)hydrazinyl)-6-methyl-1-phenyl-1H-pyrazolo[3,4-d]pyrimidine] | 233 to 235 | 66.6 ± 3.8 | 39.5 ± 2.6 | 83.7 ± 4.4 | – |
| COc1ccc(C=NNc2nc(C)nc3c2cnn3-c2ccccc2)cc1 [Compound 5d] | 227 to 229 | 19.4 ± 1.3 | 9.87 ± 0.7 | 18.3 ± 1.5 | – |
| COc1ccccc1C=NNc1nc(C)nc2c1cnn2-c1ccccc1 [Compound 5e, 4-(2-(2-Methoxybenzylidene)hydrazineyl)-6-methyl-1-phenyl-1H-pyrazolo[3,4-d]pyrimidine] | 220 to 222 | 16.1 ± 1.1 | 8.15 ± 0.5 | 13.8 ± 1 | – |
| Cc1nc(NN=Cc2ccc([N+](=O)[O-])cc2)c2cnn(-c3ccccc3)c2n1 [Compound 5f, 6-Methyl-4-(2-(4-nitrobenzylidene)hydrazineyl)-1-phenyl-1H-pyrazolo[3,4-d]pyrimidine] | 250 to 252 | > 100 | 89.7 ± 4.8 | > 100 | – |
| Cc1nc(NN=Cc2c(Cl)cccc2Cl)c2cnn(-c3ccccc3)c2n1 [Compound 5g, 4-(2-(2,6-Dichlorobenzylidene)hydrazineyl)-6-methyl-1-phenyl-1H-pyrazolo[3,4-d]pyrimidine] | 255 to 257 | > 100 | > 100 | > 100 | – |
| Cc1nc(NN=CC=Cc2ccccc2)c2cnn(-c3ccccc3)c2n1 [Compound 5h, 6-Methyl-1-phenyl-4-(2-(-3-phenylallylidene)hydrazineyl)-1H-pyrazolo[3,4-d]pyrimidine] | 241 to 243 | > 100 | 76.8 ± 4.1 | > 100 | – |
| CC(=NNc1nc(C)nc2c1cnn2-c1ccccc1)c1ccc(N)cc1 [Compound 5j, 4-(1-(2-(6-Methyl-1-phenyl-1H-pyrazolo[3,4-d]pyrimidin-4-yl)hydrazineylidene)ethyl)aniline] | 221 to 223 | 36 ± 2.4 | 21.5 ± 1.5 | 44.3 ± 2.9 | – |
| COc1ccc(C(C)=NNc2nc(C)nc3c2cnn3-c2ccccc2)cc1 [Compound 5k, 4-(2-(1-(4-Methoxyphenyl)ethylidene)hydrazinyl)-6-methyl-1-phenyl-1H-pyrazolo[3,4-d]pyrimidine] | 235 to 237 | 88.3 ± 4.7 | 78 ± 4.2 | 91.6 ± 5.1 | – |
| CC(=NNc1nc(C)nc2c1cnn2-c1ccccc1)c1ccc(Cl)cc1Br [Compound 5l, 4-(2-(1-(2-Bromo-4-chlorophenyl)ethylidene)hydrazineyl)-6-methyl-1-phenyl-1H-pyrazolo[3,4-d] pyrimidine] | 257 to 259 | 29.2 ± 1.8 | 14.6 ± 1.1 | 17.1 ± 1.3 | – |
| Cc1nc(NN2C(=O)CCC2=O)c2cnn(-c3ccccc3)c2n1 [Compound 7, 1-((6-Methyl-1-phenyl-1H-pyrazolo[3,4-d]pyrimidin-4-yl)amino)pyrrolidine-2,5-dione] | 280 to 282 | 81 ± 4.6 | 73.5 ± 3.8 | 87.2 ± 4.5 | – |
| Cc1nc(NN2C(=O)C=CC2=O)c2cnn(-c3ccccc3)c2n1 [Compound 8, 1-((6-Methyl-1-phenyl-1H-pyrazolo[3,4-d]pyrimidin-4-yl)amino)-1H-pyrrole-2,5-dione] | – | 79.5 ± 4.4 | 66.3 ± 3.5 | 78.5 ± 4.3 | – |
| CCCNC(=S)NNc1nc(C)nc2c1cnn2-c1ccccc1 [Compound 9b, 2-(6-Methyl-1-phenyl-1H-pyrazolo[3,4-d]pyrimidin-4-yl)-N-propylhydrazinecarbothioamide] | – | 34.2 ± 2 | 17.6 ± 1.3 | 23.9 ± 1.8 | – |
| COc1cccc2c1C(=O)c1c(O)c3c(c(O)c1C2=O)C[C@@](O)(C(=O)CO)C[C@@H]3O[C@H]1C[C@H](N)[C@H](O)[C@H](C)O1 [DOX, Doxorubicin, reference compound] | – | – | – | 4.5 ± 0.2 | IC50 (WI-38): 10.6 ± 0.47 µM; IC50 (HePG-2; 24 h incubation, read-out: IC50 HePG-2 24 h): 4.5 ± 0.2 µM; IC50 (HePG-2; 48 h incubation, read-out: IC50 HePG-2 48 h): 3.24 ± 0.2 µM; IC50 (HePG-2; 72 h incubation, read-out: IC50 HePG-2 72 h): 1.07 ± 0.1 µM |
| COc1cc([C@@H]2c3cc4c(cc3[C@@H](O[C@@H]3O[C@@H]5CO[C@@H](C)O[C@H]5[C@H](O)[C@H]3O)[C@H]3COC(=O)[C@H]23)OCO4)cc(OC)c1O [Etoposide, reference compound] | – | – | – | – | TOPO IiB %inh at conc 12.5 (Topo-II; conc 12.5, unit not given): 7.5%; TOPO IiB %inh at conc 25 (Topo-II; conc 25, unit not given): 20%; TOPO IiB %inh at conc 50 (Topo-II; conc 50, unit not given): 39%; TOPO IiB %inh at conc 100 (Topo-II; conc 100, unit not given): 69% |

Further lines, with some results ahead:

| melting point [°C] | SMILES | IC50 (MCF-7) [µM] | IC50 (HCT-116) [µM] | IC50 (HePG-2; [1]) [µM] | also measured |
| --- | --- | --- | --- | --- | --- |
| 250 to 252 | Cc1nc2c(cnn2-c2ccccc2)c2nncn12 [Compound 6a, 5-Methyl-7-phenyl-7H-pyrazolo[4,3-e][1,2,4]triazolo[4,3-c]pyrimidine] | 49.6 ± 3.1 | 34.6 ± 2.2 | 37.5 ± 2.7 | – |
| 267 to 269 | Cc1nc2c(cnn2-c2ccccc2)c2nnc(C(F)(F)F)n12 [Compound 6b, 5-Methyl-7-phenyl-3-(trifluoromethyl)-7H-pyrazolo[4,3-e][1,2,4]triazolo[4,3-c]pyrimidine] | 39.1 ± 2.5 | 26.1 ± 1.8 | 25.2 ± 2 | – |
| 250 to 252 | Cc1nc2c(cnn2-c2ccccc2)c2nnc(C(Cl)(Cl)Cl)n12 [Compound 6c, 5-Methyl-7-phenyl-3-(trichloromethyl)-7H-pyrazolo[4,3-e][1,2,4]triazolo[4,3-c]pyrimidine] | 54.2 ± 3.4 | 37.2 ± 2.4 | 56.2 ± 3.5 | – |
| 240 to 242 | CC(=O)CC(C)=Nc1nc(C)nc2c1cnn2-c1ccccc1 [Compound 6d, 4-((6-Methyl-1-phenyl-1H-pyrazolo[3,4-d]pyrimidin-4-yl)imino)pentan-2-one] | 84.6 ± 4.6 | 93.4 ± 5.2 | 89.2 ± 4.7 | – |
| 278 to 280 | CCNC(=S)NNc1nc(C)nc2c1cnn2-c1ccccc1 [Compound 9a, N-Ethyl-2-(6-methyl-1-phenyl-1H-pyrazolo[3,4-d]pyrimidin-4-yl)hydrazinecarbothioamide] | 7.61 ± 0.4 | 2.96 ± 0.1 | 5.97 ± 0.3 | – |
| 270 to 272 | CCCCNC(=S)NNc1nc(C)nc2c1cnn2-c1ccccc1 [Compound 9c, N-Butyl-2-(6-methyl-1-phenyl-1H-pyrazolo[3,4-d]pyrimidin-4-yl)hydrazinecarbothioamide] | 31.4 ± 1.9 | 16.6 ± 1.2 | 20.3 ± 1.6 | – |
| 268 to 270 | C=CNC(=S)NNc1nc(C)nc2c1cnn2-c1ccccc1 [Compound 9d, 2-(6-Methyl-1-phenyl-1H-pyrazolo[3,4-d]pyrimidin-4-yl)-N-vinylhydrazine-1-carbothioamide] | 35.2 ± 2.2 | 19.7 ± 1.4 | 32.6 ± 2.4 | – |
